The subject of one data set is NLRP3 inflammasome. Nature of the data set: IL-1β release from THP-1 cells stimulated with LPS and nigericin (ELISA). To be noted: 10, 50 and 100 μM peptide for 4 hours, then LPS 4 hours, nigericin 1 hour; Fig. 6. The format is cell-based, human. Here is the method:
We next examined whether the ASC peptides could inhibit IL-1β production, which is regulated by the inflammasome. We used THP-1 human monocytic cells to study inflammasome activation as they express high levels of NLRP3, ASC, and pro-casp-1. THP-1 cells were incubated with ms_ASC^PYD #1–6 or ms_NLRP3^PYD peptides at increasing concentrations for 4 hours and were then stimulated with LPS for 4 hours, followed by the NLRP3 activator nigericin for 1 hour. IL-1β levels were measured in the culture supernatant. […] The ms_ASC^PYD peptides reduced IL-1β production from THP-1 cells in response to LPS/nigericin stimulation to variable degrees (Fig. 6A). […] We decided to continue investigating in detail the inhibitory effects of ms_ASC^PYD #5 and #6 peptides, as their estimated binding energies matched well with the experimental data of suppression of ASC-dependent IL-1 release in a dose-dependent manner. Since ms_ASCPYD #6 is the shorter version of ms_ASCPYD #5, this selection also enabled us to verify the effect of varying peptide lengths.
Human monocytic THP-1 cells (1 × 10^7 cells) were plated in a 10-cm tissue culture dish and treated with PMA (200 nM) overnight to differentiate monocytic cells into macrophages. Cells were then washed and allowed to rest in fresh media for another day. For stimulation, differentiated THP-1 cells were trypsinized and seeded in 96-well plates (2 × 10^6/well). Peripheral blood mononuclear cells were isolated by Ficoll-Hypaque density gradient centrifugation from buffy coats obtained from anonymous donors provided by the National University Hospital Blood Bank, Singapore. Isolation of monocytes was performed using negative selection with the Monocyte Isolation Kit II (Miltenyi Biotech), following the manufacturer’s instructions. Monocytes were plated in tissue culture non-treated 96-well plates (2.5 × 10^5/well) in 250 µl RPMI 1640-Glutamax media supplemented with 3% human AB serum (Gemini Bio Products).
THP-1 cells and monocytes were incubated with NLRP3^PYD (12.5–25–50 μM), ASC^PYD #5 (12.5-25-50-100 μM) or ASC^PYD #6 (12.5-25-50-100 μM) for the indicated durations. Cells were then washed once with PBS and primed with E. coli LPS (0.1 μg/ml, Invivogen) for 4 h followed by stimulation with nigericin (10 μM) for an additional 1 h or ATP ([…]) for an additional 30 min. The cell culture supernatants were then collected and centrifuged at 500 × g to remove cells and cellular debris.
IL-1β levels were measured using antibodies from eBioscience (cat. #14-7018-81 and #13-7016-85), following the manufacturer’s instructions. IL-18 levels were measured using antibodies from MBL (D044-3 and D045-6) following the manufacturer’s instructions. The absorbance was measured at 450 nm with the reference wavelength at 570 nm, using an M200 Infinite plate reader (Tecan).
(In general: In an ELISA, binding on a coated surface is turned into a signal by an enzyme label.)

Data set [1] is described as follows: Circular dichroism, percentage of helicity (K2D3). The format is physicochemical. To be noted: CD, room temperature, water, 100 μM peptide; estimated with K2D3. The text has this:
The conformation of helix 2 (^16TAEELKKFKLKLLSV^30) bound to ASC^PYD (Fig. 1A) was used as the starting structure for the peptide-protein interaction modeling. Following I,I + 7 stapling scheme, we inserted a hydrocarbon staple across positions 5 and 12 along the peptide and then introduced mutations to produce a set of stapled peptides. Two variants of the template peptide were designed – a short version containing 13 residues (ms_ASC^PYD #6) and a long version containing 15 residues (ms_ASC^PYD #1–5) with two additional residues at the N-terminus (Table 1). These two additional residues were inserted to increase the length of the peptide, thus potentially enabling sufficient conformational flexibility for the region involving the critical Arg3 to remain helical. A similar approach was taken to introduce the staple in the ms_NLRP3^PYD peptide. As determined from Circular Dichroism (CD) spectra, inserting the I,I + 7 staple had the intended effect of increasing helicity of the peptides (Fig. 3). […] Percentage of helicity was much higher for ASC^PYD stapled peptides #5 and #6, 95% and 70% respectively at 100 μM peptide concentration. Percentage of helicity for the peptides were estimated from the web server K2D3[36] using CD data.
Figure 3 Circular dichroism (CD) spectra of (A) NLRP3^PYD and (B) ASC^PYD peptides to measure secondary structures.

A further data set has as its target ASC PYD (Homo sapiens) (UniProt Q9ULZ3). The data set is described as follows: NMR titration. Particulars: cited from earlier work.

Where a SMILES comes first, the peptide text is derived from it. Bridges are numbered along the chain shown (N, C = ends). [ ]: non-standard residue; d: D form. R8 = C=CCCCCCC[C@@](C)(N)C(=O)O; S5 = C=CCCC[C@](C)(N)C(=O)O

Consider 4 compounds from publication PMC6426897, “Inhibition of NLRP3 inflammasome activation by cell-permeable stapled peptides” (Scientific Reports, 2019).

Take `CC(=O)N[C@H](C(=O)N[C@@H](C)C(=O)N[C@@H](CCCNC(=N)N)C(=O)N[C@@H](CCC(=O)O)C(=O)N[C@]1(C)CCCCCCC=CCCC[C@@](C)(C(=O)N[C@@H](CCC(=O)O)C(=O)N[C@@H](CO)C(=O)N[C@H](C(N)=O)C(C)C)NC(=O)[C@H](CCCCN)NC(=O)[C@H](Cc2ccccc2)NC(=O)[C@H](CCCCN)NC(=O)[C@H](C)NC(=O)[C@H](CCCCN)NC(=O)[C@H](CCCCN)NC1=O)[C@@H](C)O` [ms_ASC^PYD #2] (Ac-TARE[R8]KKAKFK[S5]ESV-NH2; staple 5-12): in the data set with NLRP3 inflammasome, the “IL-1β release (in words)” value is on record as “inability to suppress IL-1β release”. Take `CC(=O)N[C@H](C(=O)N[C@@H](CC(=O)O)C(=O)N[C@]1(C)CCCCCCC=CCCC[C@@](C)(C(=O)N[C@@H](CCC(=O)O)C(=O)N[C@@H](CC(=O)O)C(=O)N[C@@H](Cc2ccc(O)cc2)C(N)=O)NC(=O)[C@H](Cc2c[nH]cn2)NC(=O)[C@H](Cc2ccccc2)NC(=O)[C@H](CCCCN)NC(=O)[C@H](C)NC(=O)[C@H](CCCCN)NC(=O)[C@H](CCCCN)NC1=O)C(C)C` [ms_NLRP3^PYD] (Ac-VD[R8]KKAKFH[S5]EDY-NH2; staple 3-10): in data set [1], the Percentage of helicity is reported as 48%. Also, the “IL-1β release (in words)” value in the data set with NLRP3 inflammasome is reported as “produced less IL-1β in a dose-dependent manner”.

For the compound ASC PYD (from UniProt Q9ULZ3), the Kd (usually a measure of binding affinity in units of concentration) with ASC PYD (Homo sapiens) is 65 µM. With Ac-VDLKKFKMHLEDY-NH2 [wt_NLRP3^PYD], the Percentage of helicity entry in data set [1] is on record as “no helicity”.
